# Measured values: publication PMC8217170, “Phase Ib dose-escalation study of the hypoxia-modifier Myo-inositol trispyrophosphate in patients with hepatopancreatobiliary tumors” (Nature Communications, 2021)
# Test: Plasma levels and pharmacokinetics of intravenous ITPP
smiles,measurement,setting,value
"O=P1(O)OC2C3OP(=O)(O)OP(=O)(O)OC3C3OP(=O)(O)OP(=O)(O)OC3C2OP(=O)(O)O1 (centres unmarked) [ITPP, Myo-inositol trispyrophosphate]","ITPP plasma level, Concentration","Cohort 6, Patient 18, Day 5, Hour 10",60.6 µg/mL
same,"ITPP plasma level, Concentration","Cohort 6, Patient 19, Day 1, Hour 0",0 µg/mL
same,"ITPP plasma level, Concentration","Cohort 6, Patient 19, Day 1, Hour 3",392 µg/mL
same,"ITPP plasma level, Concentration","Cohort 6, Patient 19, Day 1, Hour 6",294 µg/mL
same,"ITPP plasma level, Concentration","Cohort 6, Patient 19, Day 1, Hour 8.5",219 µg/mL
same,"ITPP plasma level, Concentration","Cohort 6, Patient 19, Day 1, Hour 9",185 µg/mL
same,"ITPP plasma level, Concentration","Cohort 6, Patient 19, Day 1, Hour 10",154 µg/mL
same,"ITPP plasma level, Concentration","Cohort 6, Patient 19, Day 5, Hour 0",0 µg/mL
same,"ITPP plasma level, Concentration","Cohort 6, Patient 19, Day 5, Hour 3",287 µg/mL
same,"ITPP plasma level, Concentration","Cohort 6, Patient 19, Day 5, Hour 6",329 µg/mL
same,"ITPP plasma level, Concentration","Cohort 6, Patient 19, Day 5, Hour 8.5",265 µg/mL
same,"ITPP plasma level, Concentration","Cohort 6, Patient 19, Day 5, Hour 9",244 µg/mL
same,"ITPP plasma level, Concentration","Cohort 6, Patient 19, Day 5, Hour 10",216 µg/mL
same,"ITPP plasma level, Concentration","Cohort 6, Patient 20, Day 1, Hour 0",0 µg/mL
same,"ITPP plasma level, Concentration","Cohort 6, Patient 20, Day 1, Hour 3",279 µg/mL
same,"ITPP plasma level, Concentration","Cohort 6, Patient 20, Day 1, Hour 6",307 µg/mL
same,"ITPP plasma level, Concentration","Cohort 6, Patient 20, Day 1, Hour 8.5",282 µg/mL
same,"ITPP plasma level, Concentration","Cohort 6, Patient 20, Day 1, Hour 9",396 µg/mL
same,"ITPP plasma level, Concentration","Cohort 6, Patient 20, Day 1, Hour 10",396 µg/mL
same,"ITPP plasma level, Concentration","Cohort 6, Patient 20, Day 5, Hour 0",0 µg/mL
same,"ITPP plasma level, Concentration","Cohort 6, Patient 20, Day 5, Hour 3",411 µg/mL
same,"ITPP plasma level, Concentration","Cohort 6, Patient 20, Day 5, Hour 6",595 µg/mL
same,"ITPP plasma level, Concentration","Cohort 6, Patient 20, Day 5, Hour 8.5",466 µg/mL
same,"ITPP plasma level, Concentration","Cohort 6, Patient 20, Day 5, Hour 9",301 µg/mL
same,"ITPP plasma level, Concentration","Cohort 6, Patient 20, Day 5, Hour 10",279 µg/mL
same,"ITPP plasma level, Concentration","Cohort 6, Patient 21, Day 1, Hour 0",0 µg/mL
same,"ITPP plasma level, Concentration","Cohort 6, Patient 21, Day 1, Hour 3",249 µg/mL
same,"ITPP plasma level, Concentration","Cohort 6, Patient 21, Day 1, Hour 6",325 µg/mL
same,"ITPP plasma level, Concentration","Cohort 6, Patient 21, Day 1, Hour 8.5",281 µg/mL
same,"ITPP plasma level, Concentration","Cohort 6, Patient 21, Day 1, Hour 9",241 µg/mL
same,"ITPP plasma level, Concentration","Cohort 6, Patient 21, Day 1, Hour 10",172 µg/mL
same,"ITPP plasma level, Concentration","Cohort 6, Patient 21, Day 5, Hour 0",0 µg/mL
same,"ITPP plasma level, Concentration","Cohort 6, Patient 21, Day 5, Hour 3",350 µg/mL
same,"ITPP plasma level, Concentration","Cohort 6, Patient 21, Day 5, Hour 6",204 µg/mL
same,"ITPP plasma level, Concentration","Cohort 6, Patient 21, Day 5, Hour 8.5",217 µg/mL
same,"ITPP plasma level, Concentration","Cohort 6, Patient 21, Day 5, Hour 9",184 µg/mL
same,"ITPP plasma level, Concentration","Cohort 6, Patient 21, Day 5, Hour 10",125 µg/mL
same,"ITPP plasma level, Concentration","Cohort 7, Patient 22, Day 1, Hour 0",0 µg/mL
same,"ITPP plasma level, Concentration","Cohort 7, Patient 22, Day 1, Hour 3",280 µg/mL
same,"ITPP plasma level, Concentration","Cohort 7, Patient 22, Day 1, Hour 6",384 µg/mL
same,"ITPP plasma level, Concentration","Cohort 7, Patient 22, Day 1, Hour 8.5",281 µg/mL
same,"ITPP plasma level, Concentration","Cohort 7, Patient 22, Day 1, Hour 9",215 µg/mL
same,"ITPP plasma level, Concentration","Cohort 7, Patient 22, Day 1, Hour 10",152 µg/mL
same,"ITPP plasma level, Concentration","Cohort 7, Patient 22, Day 5, Hour 0",0 µg/mL
same,"ITPP plasma level, Concentration","Cohort 7, Patient 22, Day 5, Hour 3",257 µg/mL
same,"ITPP plasma level, Concentration","Cohort 7, Patient 22, Day 5, Hour 6",351 µg/mL
same,"ITPP plasma level, Concentration","Cohort 7, Patient 22, Day 5, Hour 8.5",319 µg/mL
same,"ITPP plasma level, Concentration","Cohort 7, Patient 22, Day 5, Hour 9",302 µg/mL
same,"ITPP plasma level, Concentration","Cohort 7, Patient 22, Day 5, Hour 10",203 µg/mL
same,"ITPP plasma level, Concentration","Cohort 7, Patient 23, Day 1, Hour 0",0 µg/mL
same,"ITPP plasma level, Concentration","Cohort 7, Patient 23, Day 1, Hour 3",286 µg/mL
same,"ITPP plasma level, Concentration","Cohort 7, Patient 23, Day 1, Hour 6",329 µg/mL
same,"ITPP plasma level, Concentration","Cohort 7, Patient 23, Day 1, Hour 8.5",316 µg/mL
same,"ITPP plasma level, Concentration","Cohort 7, Patient 23, Day 1, Hour 9",178 µg/mL
same,"ITPP plasma level, Concentration","Cohort 7, Patient 23, Day 1, Hour 10",119 µg/mL
same,"ITPP plasma level, Concentration","Cohort 7, Patient 23, Day 5, Hour 0",0 µg/mL
same,"ITPP plasma level, Concentration","Cohort 7, Patient 23, Day 5, Hour 3",282 µg/mL
same,"ITPP plasma level, Concentration","Cohort 7, Patient 23, Day 5, Hour 6",478 µg/mL
same,"ITPP plasma level, Concentration","Cohort 7, Patient 23, Day 5, Hour 8.5",418 µg/mL
same,"ITPP plasma level, Concentration","Cohort 7, Patient 23, Day 5, Hour 9",188 µg/mL
same,"ITPP plasma level, Concentration","Cohort 7, Patient 23, Day 5, Hour 10",185 µg/mL
same,"ITPP plasma level, Concentration","Cohort 7, Patient 24, Day 1, Hour 0",0 µg/mL
same,"ITPP plasma level, Concentration","Cohort 7, Patient 24, Day 1, Hour 3",278 µg/mL
same,"ITPP plasma level, Concentration","Cohort 7, Patient 24, Day 1, Hour 6",230 µg/mL
same,"ITPP plasma level, Concentration","Cohort 7, Patient 24, Day 1, Hour 8.5",226 µg/mL
same,"ITPP plasma level, Concentration","Cohort 7, Patient 24, Day 1, Hour 9",152 µg/mL
same,"ITPP plasma level, Concentration","Cohort 7, Patient 24, Day 1, Hour 10",103 µg/mL
same,"ITPP plasma level, Concentration","Cohort 7, Patient 24, Day 2, Hour 0",0 µg/mL
same,"ITPP plasma level, Concentration","Cohort 7, Patient 24, Day 2, Hour 9",143 µg/mL
same,"ITPP plasma level, Concentration","Cohort 7, Patient 24, Day 3, Hour 0",0 µg/mL
same,"ITPP plasma level, Concentration","Cohort 7, Patient 24, Day 3, Hour 9",237 µg/mL
same,"ITPP plasma level, Concentration","Cohort 7, Patient 24, Day 4, Hour 0",0 µg/mL
same,"ITPP plasma level, Concentration","Cohort 7, Patient 24, Day 4, Hour 9",199 µg/mL
same,"ITPP plasma level, Concentration","Cohort 7, Patient 24, Day 5, Hour 0",0 µg/mL
same,"ITPP plasma level, Concentration","Cohort 7, Patient 24, Day 5, Hour 3",299 µg/mL
same,"ITPP plasma level, Concentration","Cohort 7, Patient 24, Day 5, Hour 6",358 µg/mL
same,"ITPP plasma level, Concentration","Cohort 7, Patient 24, Day 5, Hour 8.5",245 µg/mL
same,"ITPP plasma level, Concentration","Cohort 7, Patient 24, Day 5, Hour 9",200 µg/mL
same,"ITPP plasma level, Concentration","Cohort 7, Patient 24, Day 5, Hour 10",141 µg/mL
same,"ITPP plasma level, Concentration","Cohort 7, Patient 24, Day 6, Hour 0",0 µg/mL
same,"ITPP plasma level, Concentration","Cohort 7, Patient 24, Day 6, Hour 9",200 µg/mL
same,"ITPP plasma level, Concentration","Cohort 7, Patient 24, Day 7, Hour 0",0 µg/mL
same,"ITPP plasma level, Concentration","Cohort 7, Patient 24, Day 7, Hour 9",208 µg/mL
same,"ITPP plasma level, Concentration","Cohort 7, Patient 24, Day 8, Hour 0",0 µg/mL
same,"ITPP plasma level, Concentration","Cohort 7, Patient 24, Day 8, Hour 9",181 µg/mL
same,"ITPP plasma level, Concentration","Cohort 7, Patient 24, Day 9, Hour 0",0 µg/mL
same,"ITPP plasma level, Concentration","Cohort 7, Patient 24, Day 9, Hour 3",247 µg/mL
same,"ITPP plasma level, Concentration","Cohort 7, Patient 24, Day 9, Hour 6",345 µg/mL
same,"ITPP plasma level, Concentration","Cohort 7, Patient 24, Day 9, Hour 8.5",217 µg/mL
same,"ITPP plasma level, Concentration","Cohort 7, Patient 24, Day 9, Hour 9",199 µg/mL
same,"ITPP plasma level, Concentration","Cohort 7, Patient 24, Day 9, Hour 10",143 µg/mL
same,"ITPP plasma level, Concentration","Cohort 8, Patient 25, Day 1, Hour 0",0 µg/mL
same,"ITPP plasma level, Concentration","Cohort 8, Patient 25, Day 1, Hour 3",388 µg/mL
same,"ITPP plasma level, Concentration","Cohort 8, Patient 25, Day 1, Hour 6",497 µg/mL
same,"ITPP plasma level, Concentration","Cohort 8, Patient 25, Day 1, Hour 8.5",505 µg/mL
same,"ITPP plasma level, Concentration","Cohort 8, Patient 25, Day 1, Hour 9",317 µg/mL
same,"ITPP plasma level, Concentration","Cohort 8, Patient 25, Day 1, Hour 10",194 µg/mL
same,"ITPP plasma level, Concentration","Cohort 8, Patient 25, Day 5, Hour 0",0 µg/mL
same,"ITPP plasma level, Concentration","Cohort 8, Patient 25, Day 5, Hour 3",354 µg/mL
same,"ITPP plasma level, Concentration","Cohort 8, Patient 25, Day 5, Hour 6",495 µg/mL
same,AUC,"cohort 1, 1866 mg/m2",350.7 µg·h/mL
same,AUMC,"cohort 1, 1866 mg/m2",1994.7 h2*mg/L
same,CL,"cohort 1, 1866 mg/m2",4.8 L/h
same,Clast,"cohort 1, 1866 mg/m2",19200 ng/mL
same,Cmax,"cohort 1, 1866 mg/m2",47200 ng/mL
same,Cmin,"cohort 1, 1866 mg/m2",0 ng/mL
same,Elimination rate λz,"cohort 1, 1866 mg/m2",0.5 h⁻¹
same,Half life/T0.5,"cohort 1, 1866 mg/m2",1.3 h
same,MRT,"cohort 1, 1866 mg/m2",1.7 h
same,Tlast,"cohort 1, 1866 mg/m2",10.0 h
